Patent US11078165B2 (priority 2017, dated 2021)
Values after ≈ are worked out from the molar mass of the structure shown. Where two headings read alike, the source gives them in different places.

Experiments:
M. smegmatis mc^2 155 = experiment: Minimum inhibitory concentration, broth micro dilution; format: cell-based, Mycobacterium smegmatis; details: Mycolicibacterium smegmatis, MC^2155; M. smegmatis growth, 24 h; read-out: MIC50 [μM], bacterial growth
[1] = biological target: F-ATP synthase of inverted membrane vesicles (IMV) of M. smegmatis; experiment: ATP synthesis assay with inverted membrane vesicles; details: read-out: IC50 [μM], effect on ATP synthesis, IMVs of M. smegmatis
Chain of F-ATP synthase of inverted membrane vesicles (IMV) of M. smegmatis (A0R203 whole entry): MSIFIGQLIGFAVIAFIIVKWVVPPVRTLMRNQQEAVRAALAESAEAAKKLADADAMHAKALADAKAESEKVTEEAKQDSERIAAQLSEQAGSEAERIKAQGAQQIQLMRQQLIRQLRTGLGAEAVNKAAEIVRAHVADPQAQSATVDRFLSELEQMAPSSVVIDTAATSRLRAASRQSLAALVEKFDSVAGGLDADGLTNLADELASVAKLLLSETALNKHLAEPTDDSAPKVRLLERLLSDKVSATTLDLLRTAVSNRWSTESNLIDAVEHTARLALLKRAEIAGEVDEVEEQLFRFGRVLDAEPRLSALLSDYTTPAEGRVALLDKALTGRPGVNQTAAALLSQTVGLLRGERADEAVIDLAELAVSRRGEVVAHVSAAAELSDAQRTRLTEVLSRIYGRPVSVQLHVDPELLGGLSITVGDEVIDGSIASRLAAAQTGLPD
Chain of F-ATP synthase of inverted membrane vesicles (IMV) of M. smegmatis (A0R1Z9 whole entry, further chain): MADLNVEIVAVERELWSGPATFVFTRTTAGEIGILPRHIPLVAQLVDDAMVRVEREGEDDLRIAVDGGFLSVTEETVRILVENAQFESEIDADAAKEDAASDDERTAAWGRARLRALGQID
Chain of F-ATP synthase of inverted membrane vesicles (IMV) of M. smegmatis (A0R200 whole entry, further chain): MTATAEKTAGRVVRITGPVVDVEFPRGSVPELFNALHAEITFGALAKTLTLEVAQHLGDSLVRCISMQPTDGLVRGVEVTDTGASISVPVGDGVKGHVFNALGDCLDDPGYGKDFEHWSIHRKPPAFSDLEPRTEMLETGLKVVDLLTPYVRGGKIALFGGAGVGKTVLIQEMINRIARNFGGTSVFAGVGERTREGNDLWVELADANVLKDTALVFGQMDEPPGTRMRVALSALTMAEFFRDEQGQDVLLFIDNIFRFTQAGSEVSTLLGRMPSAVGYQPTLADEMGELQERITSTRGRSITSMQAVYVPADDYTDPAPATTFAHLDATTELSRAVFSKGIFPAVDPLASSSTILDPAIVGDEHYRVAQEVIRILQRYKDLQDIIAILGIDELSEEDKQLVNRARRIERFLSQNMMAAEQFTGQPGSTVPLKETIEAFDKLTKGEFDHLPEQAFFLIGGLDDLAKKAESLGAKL
Chain of F-ATP synthase of inverted membrane vesicles (IMV) of M. smegmatis (A0R201 whole entry, further chain): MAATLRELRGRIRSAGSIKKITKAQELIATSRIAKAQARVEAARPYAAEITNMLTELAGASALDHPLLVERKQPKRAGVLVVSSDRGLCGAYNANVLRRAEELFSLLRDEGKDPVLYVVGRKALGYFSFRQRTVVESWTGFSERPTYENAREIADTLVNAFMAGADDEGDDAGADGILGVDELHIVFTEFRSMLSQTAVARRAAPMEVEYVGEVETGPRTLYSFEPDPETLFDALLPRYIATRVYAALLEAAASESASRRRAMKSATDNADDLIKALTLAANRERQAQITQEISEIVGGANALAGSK
Chain of F-ATP synthase of inverted membrane vesicles (IMV) of M. smegmatis (A0R202 whole entry, further chain): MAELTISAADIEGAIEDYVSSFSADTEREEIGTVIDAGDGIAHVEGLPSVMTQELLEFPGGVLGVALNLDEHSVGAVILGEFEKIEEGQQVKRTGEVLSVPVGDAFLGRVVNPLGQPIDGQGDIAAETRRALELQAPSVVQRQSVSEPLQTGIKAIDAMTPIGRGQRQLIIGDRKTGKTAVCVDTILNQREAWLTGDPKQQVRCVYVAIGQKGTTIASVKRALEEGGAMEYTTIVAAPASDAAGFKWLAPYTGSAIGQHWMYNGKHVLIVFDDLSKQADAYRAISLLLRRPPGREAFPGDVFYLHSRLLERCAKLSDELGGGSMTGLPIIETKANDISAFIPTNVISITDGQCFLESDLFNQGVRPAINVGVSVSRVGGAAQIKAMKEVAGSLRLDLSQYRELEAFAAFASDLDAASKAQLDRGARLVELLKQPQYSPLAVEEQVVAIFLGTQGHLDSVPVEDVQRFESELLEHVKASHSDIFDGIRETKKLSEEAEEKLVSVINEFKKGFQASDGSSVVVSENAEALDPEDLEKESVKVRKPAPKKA

M. bovis BCG = experiment: microbe, parasite or virus in culture; format: cell-based, Mycobacterium bovis; details: for ATP synthesis (luminescence): FIG. 3C; for IC50: Mycobacterium tuberculosis variant bovis BCG, BCG, FIG. 3D
[2] = test system: extracellular oxygen consumption; experiment: Oxygen consumption rate; format: cell-based
IMVs of M. phlei = details: reported [1], read-out: IC50, ATP synthesis; cited from earlier work
[3] = Mouse liver microsome stability; format: in vitro ADME; details: for half-life: mouse, liver microsomes

SMILES	MIC50 (M. smegmatis mc^2 155) [µM]	melting point [°C]	IC50 [1] [µM]	other results
CCNc1cc(C)nc(Nc2ccc(NC(=O)c3cccc(O)c3)cc2)n1 [3OH U Et, N-(4-((4-(ethylamino)-6-methylpyrimidin-2-yl)amino)phenyl)-3-hydroxybenzamide]	79.6 ± 9.13 (≈ 28.9 µg/mL)	283 to 285	1.16 ± 0.09	–
CCNc1cc(C)nc(Nc2ccc(NC(=O)c3ccc(C)cc3)cc2)n1 [4Me U Et, N-(4-((4-(ethylamino)-6-methylpyrimidin-2-yl)amino)phenyl)-4-methylbenzamide]	31.8 ± 7.8 (≈ 11.5 µg/mL)	297 to 300	0.39 ± 0.02	–
CCNc1cc(C)nc(Nc2ccc(NC(=O)c3ccc(OC)cc3)cc2)n1 [4OMe U Et, N-(4-((4-(ethylamino)-6-methylpyrimidin-2-yl)amino)phenyl)-4-methoxybenzamide]	17.3 ± 2.26 (≈ 6.52 µg/mL)	285 to 288	0.69 ± 0.06	whole cell ATP synthesis inhibition versus drug free control (M. bovis BCG; analog in combination with BDQ, FIG. 6A, 6B): significant increase in the inhibition
COc1nc2ccc(Br)cc2cc1[C@@H](c1ccccc1)[C@@](O)(CCN(C)C)c1cccc2ccccc12 [BDQ, 1-(6-bromo-2-methoxy-quinolin-3-yl)-4-dimethylamino-2-naphthalen-1-yl-1-phenyl-butan-2-ol]	–	–	–	ATP synthesis (luminescence) (M. bovis BCG; 12.5 nM BDQ in the presence of 37.5 μM of cpd 6): 6.5×10^3 RLU; ATP synthesis (luminescence) (M. bovis BCG; BDQ alone at 200 nM, drug-free 3.7×10^4 RLU): 8×10^3 RLU; IC50 (M. bovis BCG; read-out: IC50 value of BDQ, BDQ alone): 42 nM; IC50 (M. bovis BCG; read-out: IC50 value of BDQ, in combination with cpd 6): 2.36 nM; concentration inhibiting extracellular oxygen consumption ([2]; BDQ alone): about 500 nM; concentration needed for similar inhibition of oxygen consumption ([2]; BDQ in combination with 40 μM of cpd 6): 50 nm; IC50 (IMVs of M. phlei): 20 to 25 nM
Cc1cc(NCCO)nc(Nc2ccc(NC(=O)c3cccc(Br)c3)cc2)n1 [Br EtOH]	19 ± 1.5 (≈ 8.41 µg/mL)	237 to 241	0.42 ± 0.03	–
CCOC(=O)CNc1cc(C)nc(Nc2ccc(NC(=O)c3cccc(Br)c3)cc2)n1 [Br Gly, ethyl (2-((4-(3-bromobenzamido)phenyl)amino)-6-methylpyrimidin-4-yl)glycinate]	15.5 ± 1.52 (≈ 7.53 µg/mL)	> 230	2.01 ± 0.16	–
CNc1cc(C)nc(Nc2ccc(NC(=O)c3cccc(Br)c3)cc2)n1 [Br Me, 3-bromo-N-(4-((4-methyl-6-(methylamino)pyrimidin-2-yl)amino)phenyl)benzamide]	12.4 ± 0.56 (≈ 5.11 µg/mL)	301 to 303	0.39 ± 0.06	–
CCNc1nc(Nc2ccc(NC(=O)c3cccc(Br)c3)cc2)ncc1C [Br T Et, 3-bromo-N-(4-((4-(ethylamino)-5-methylpyrimidin-2-yl)amino)phenyl)benzamide]	12.3 ± 0.73 (≈ 5.25 µg/mL)	> 230	0.62 ± 0.08	–
CCNc1nc(C)cc(Nc2ccc(NC(=O)c3cccc(Br)c3)cc2)n1 [Br U Et iso (Cpd 6 iso), 3-bromo-N-(4-((2-(ethylamino)-6-methylpyrimidin-4-yl)amino)phenyl)benzamide]	20.8 ± 1.9 (≈ 8.88 µg/mL)	260 to 264	0.38 ± 0.03	–
CCNc1ccnc(Nc2ccc(NC(=O)c3cccc(Br)c3)cc2)n1 [Br desMe, 3-bromo-N-(4-((4-(ethylamino)pyrimidin-2-yl)amino)phenyl)benzamide]	16.8 ± 2.6 (≈ 6.93 µg/mL)	229 to 231	1.03 ± 0.25	–
Cc1cc(NC(C)C)nc(Nc2ccc(NC(=O)c3cccc(Br)c3)cc2)n1 [Br iso, 3-bromo-N-(4-((4-(isopropylamino)-6-methylpyrimidin-2-yl)amino)phenyl)benzamide]	50.1 ± 4.5 (≈ 22.1 µg/mL)	183 to 185	2.69 ± 0.21	–
CCNc1cc(C)nc(Nc2ccc(NC(=O)c3cccc(Br)c3)cc2)n1 [Cpd 6, 3-bromo-N-(4-((4-(ethylamino)-6-methylpyrimidin-2-yl)amino)phenyl)benzamide]	–	–	–	microsomal CLint ([3]; mouse liver microsomes): 14.6 µL/min/mg; half-life ([3]; read-out: T½): 47.5 min; half-life ([3]; without NADPH, read-out: T½ w/o NADPH): 68 min
CCNc1nc(Nc2ccc(NC(=O)c3cccc(F)c3)cc2)ncc1C [F T Et, N-(4-((4-(ethylamino)-5-methylpyrimidin-2-yl)amino)phenyl)-3-fluorobenzamide]	43.5 ± 3.57 (≈ 15.9 µg/mL)	–	0.92 ± 0.04	–
CCNc1cc(C)nc(Nc2ccc(NC(=O)c3cccc(F)c3)cc2)n1 [F U Et, N-(4-((4-(ethylamino)-6-methylpyrimidin-2-yl)amino)phenyl)-3-fluorobenzamide]	18.7 ± 1.25 (≈ 6.84 µg/mL)	259 to 263	0.26 ± 0.05	–
CCNc1nc(Nc2ccc(NC(=O)c3ccccc3)cc2)ncc1C [H T Et, N-(4-((4-(ethylamino)-5-methylpyrimidin-2-yl)amino)phenyl)benzamide]	39 ± 1.91 (≈ 13.5 µg/mL)	> 230	0.9 ± 0.06	–
CCNc1cc(C)nc(Nc2ccc(NC(=O)c3ccccc3)cc2)n1 [H U Et, N-(4-((4-(ethylamino)-6-methylpyrimidin-2-yl)amino)phenyl)benzamide]	26.9 ± 1.39 (≈ 9.36 µg/mL)	225 to 226	1.65 ± 0.16	–
CCc1nc2ccc(Cl)cn2c1C(=O)NCc1ccc(N2CCC(c3ccc(OC(F)(F)F)cc3)CC2)cc1 [Q203, 6-chloro-2-ethyl-N-[[4-[4-[4-(trifluoromethoxy)phenyl]piperidin-1-yl]phenyl]methyl]imidazo[1,2-a]pyridine-3-carboxamide]	–	–	–	effect of Q203 in the presence of cpd 6 (M. bovis BCG; ATP synthesis, FIG. 3E): additive effect; concentration for complete inhibition of oxygen consumption ([2]; Q203 in combination with 40 μM of cpd 6): 100 nM
